Experimental data: patent EP4427759A1, “TRACEABLE CHIMERIC ANTIGEN RECEPTOR CELL” (Eberhard-Karls-Universität Tübingen, priority 2023, dated 2024)

How the values were obtained:
HCT116 AdCAR xenografts = test: HCT116 AdCAR xenograft model, PET/MR and ex vivo biodistribution by gamma-counting; assay type: in vivo, NOD.CB17-Prkdcscid/J mice
Description: (§1) For the xenograft model, 5 × 10^6 cells/mL cells were injected. Five NOD.CB17-Prkdcscid/J were injected with HCT116 WT, and five additional mice were injected with HCT116 AdCAR subcutaneously into the right flank in a mixture of 1:1 Matrigel and PBS (200 µL per mouse) with a 1 mL syringe (30G canula). Afterwards the tumors grew for approximately two weeks before PET and MR measurements.
(§2) For the xenograft model a one-hour dynamic PET scan was performed. The mice were anaesthetized with isoflurane (initially 5%, then 1.5-2%) and a catheter was placed into the tail vein. The mice were placed onto the scanner bed and the body was centered into the field of view (FOV). Mice were injected with13.6 ± 0.35 MBq of [^18F]biotin3FB on average at the beginning of the PET scan and measured for 1h. Afterwards, MR scans were performed to gain anatomical information using an TurboRare spin-echo sequence. After the scans, the mice were sacrificed, and the organs were collected to quantify radiotracer uptake by ex vivo gamma-counting.
(§3) Reconstruction and analysis of the acquired PET/MR data was performed with Inveon Acquisition Workplace and Inveon Research Workplace (IRW), respectively, using dynamic framing and an ordered subset expectation maximization (OSEM) 3D algorithm. For the second part of the experiment statistic framing was used. Regions of interest (ROIs) were drawn under consideration of the acquired MR images and co-registered with the PET data to obtain time-activity curves (TACs).

HCT116 CTRL xenografts = test: HCT116 control xenograft model, ex vivo biodistribution by gamma-counting; assay type: in vivo, NOD.CB17-Prkdcscid/J mice; conditions: gamma-counting after 1 h dynamic PET scan, n = 5
Description: as §1, §2
(§4) Reconstruction and analysis of the acquired PET/MR data was performed with Inveon Acquisition Workplace and Inveon Research Workplace (IRW), respectively, using dynamic framing and an ordered subset expectation maximization (OSEM) 3D algorithm. For the second part of the experiment statistic framing was used. […]

[1] = one-hour dynamic PET scan, time activity curves of organs; assay type: in vivo, NOD.CB17-Prkdcscid/J mice
Description: as §2, §3

Jurkat AdCAR cells = test: Jurkat model, static PET/MR and ex vivo biodistribution; assay type: in vivo, mice; conditions: Jurkat AdCAR vs Jurkat CTRL i.p.; day 1, 3 and 7 after cell injection; 1 h resting uptake
Description: Five mice were injected with 1 × 10^7 cells/mL Jurkat LucGFP (CTRL), and five additional mice were injected with 1 × 10^7 cells/mL Jurkat aCAR in 200µl PBS into the peritoneal cavity with a 1 mL syringe (30G canula).
For the Jurkat model a ten-minute static PET scan was performed. The mice were anaesthetized with isoflurane (initially 5%, then 1.5-2) and a catheter was placed into the tail vein. The mice were injected with 13.6 ± 0.24 MBq of [^18F]biotin3FB on average and afterwards placed in an isoflurane box for a one-hour resting uptake. After 1 h, the mice were placed onto the scanner bed, the body was centered into the FOV, and a 10 min PET scan was performed. Afterwards, MR scans were performed as described above. The PET and MR measurements took place on day 1, 3 and 7 after cell injection. When the measurements on the 7th day were finished, the mice were sacrificed and uptake in spleen, lymph nodes, muscle and blood were quantified by ex vivo gamma-counting.
as §4

[2] = ex vivo biodistribution, xenograft model

[^18F]biotin3fluorobenzoate [[^18F]biotin3FB]
uptake in xenografts, ex vivo biodistribution analysis (HCT116 AdCAR xenografts; AdCAR expressing xenografts, gamma-counting after 1 h dynamic PET scan, n = 5): 4.59 % ID/g
tumor-to-muscle ratio (TMR), AdCAR xenografts compared to control xenografts (HCT116 AdCAR xenografts; P=0.0159, Mann-Whitney test, n = 5 per group): significantly higher
absolute tumor uptake, AdCAR xenografts compared to control xenografts (HCT116 AdCAR xenografts; p = 0.0050, unpaired t test, n = 5 per group): significantly higher
uptake in xenografts, ex vivo biodistribution analysis (HCT116 CTRL xenografts): 0.73 % ID/g
SUVpeak(aCAR), brain TAC ([1]; brain, mice with HCT116 AdCAR xenografts): 0.54
SUVpeak(CTRL), brain TAC ([1]; brain, mice with HCT116 CTRL xenografts): 0.45
blood half-life ([1]; calculated from the heart TAC, i.v. tail vein): 2.3 min
radiotracer uptake in the brain [1, 2]: Almost no uptake
radiotracer uptake in the kidney [1, 2]: High radiotracer uptake
difference between AdCAR expressing cells and control cells (PET/MR, spleen uptake) (Jurkat AdCAR cells): no difference
